Consider 88 compounds from a melting point compilation (Tetko et al.; mined from patent text by program, amines drawn as free bases though some values may be those of a salt).

As a reminder, the melting point is the temperature of the solid-liquid transition.

In turn, `CC1CCc2cc(N3C[C@H](CO)OC3=O)ccc2N1C(=O)OCc1ccccc1` (stereo partly drawn) gave a melting point of 99 to 102 °C.

In turn, `OC1(C2=NCCCN2)c2ccccc2-c2ccccc21` gave a melting point of 242 to 245 °C.

Turning to `O=c1oc2cc(O)c(O)cc2c(O)c1C1c2ccccc2Oc2c1c(=O)oc1cc(O)cc(O)c21` (stereo not drawn), the melting point is more than 300 °C.

Compound `O=[N+]([O-])c1cn(-c2cncc(F)c2)nc1Cl` yielded a melting point of 110 to 111 °C.

Regarding `CCCCCCCCCCCC12OC(C)CN1CC(C)O2` (stereo not drawn), the melting point is more than 130 °C.

Take `O=[N+]([O-])c1ccc2nc(Cl)[nH]c2c1`: the melting point fell in the range of 235 to 237 °C.

In turn, `CC(C)CC(=O)Oc1ccc2cc(C(=N)N)ccc2c1` showed a melting point of 250 to 252 °C.

`COC(=O)c1cn2c(n1)COc1c(OC)cccc1-2` came in with a melting point of 188 to 190 °C.

As for `O=C(NC1CCOc2cc(C(=O)Nc3ccncc3)ccc21)OCc1ccccc1` (stereo not drawn), the melting point fell in the range of 226 to 228 °C.

In the case of `COc1ccc(NC(=O)c2ccc(C3(C#N)CCCC3)cc2)cc1`, the melting point lay in the range of 163 to 168 °C.

The compound `N#Cc1ccc(C=CC(=O)c2ccc(O)c(CC(=O)O)c2)cc1` displayed a melting point of 249 °C.

For `O=C(O)[C@H]1Cc2ccccc2CN1S(=O)(=O)c1ccc([N+](=O)[O-])cc1`, the melting point turned out to be 140 °C.

`O=C(Nc1ccccc1)OCCCC(=O)c1ccccc1` came in with a melting point of 121 to 123 °C.

In turn, `O=[N+]([O-])c1cn2c(n1)O[C@@H](COc1ccc(N3CCC(CCc4ccc(OC(F)(F)F)cc4)CC3)cc1)C2` returned a melting point of 209 to 212 °C.

Compound `CON(C)C(=O)CNC(=O)OC(C)(C)C` registered a melting point of 92 to 95 °C.

Compound `Cc1nnc(SCC(=O)C23CC4CC(CC(C4)C2)C3)s1` gave a melting point of 102 to 105 °C.

Compound `CC(=O)NC1(c2ccccc2)CCN(CC[C@@H](c2ccc(Cl)c(Cl)c2)[C@@H](O)c2ccnn2-c2ccccc2)CC1` (racemic) gave a melting point of 115 to 118 °C.

Compound `COc1ccc2ccc(Nc3cc(-c4ccc(C(F)(F)F)cc4)ncn3)cc2n1` had a melting point of 199 °C.

Take `CCCCCCCCNC(=O)ON=C(Cc1ccccc1)C1=CC(=O)C(C)(C)O1`: the melting point lay in the range of 67 to 68 °C.

With `CCCCNc1cc(CN(Cc2ccccc2)C(=O)c2ccccc2)cc(S(N)(=O)=O)c1Oc1ccccc1`, the melting point was 137 to 138 °C.

Compound `O=C(Nc1cccnc1Cl)N1CCc2ccccc2CC1` showed a melting point of 120 to 122 °C.

In the case of `CCn1c(=O)c2c(nc(/C=C/c3ccc(O)c(C)c3C)n2C)n(CC)c1=O`, the melting point is 240 to 242 °C.

In turn, `COc1ccc(-c2nc(Sc3ccc(C(C)(C)C)cc3)[nH]c2-c2ccc(OC)cc2)cc1` came in with a melting point of 172 to 174 °C.

`COc1ccc(-c2cc(=Nc3c(C)cc(C)cc3C)n(C)c(=O)n2C)cc1S(C)=O` (stereo not drawn) returned a melting point of 125 to 135 °C.

In turn, `O=C(O)c1ccc(C(=O)N2CCCc3ccccc32)cc1` returned a melting point of 181 to 183 °C.

Take `O=C(CC1CCCCC1=O)c1ccc(Cl)cc1` (stereo not drawn): the melting point was in the range of 56 to 58 °C.

Turning to `COc1ccc(-c2ccc3c(c2)c2cc(Cl)cnc2n3S(=O)(=O)c2ccccc2)cc1`, the melting point is more than 220 °C.

As for `CN(C)C(=O)C1CCCc2c1c1ccccc1n2Cc1ccccc1` (stereo not drawn), the melting point is 208 to 210 °C.

With `C=C(C)Cc1c(C)c(OC(C)=O)c(C)c(C)c1O`, the melting point fell in the range of 109 to 110 °C.

As to `C[C@@H](COS(C)(=O)=O)NS(=O)(=O)c1ccccc1[N+](=O)[O-]`, the melting point was in the range of 125 to 126 °C.

Take `COc1cc2c(cc1C)C1(CO2)C(=O)N(Cc2ccccn2)c2ccccc21` (stereo not drawn): the melting point lay in the range of 142 to 144 °C.

The compound `O=C(Nc1ccc(C(F)(F)F)cc1)NC(Cc1ccc(C(F)(F)F)cc1)C(O)c1ccc(F)cc1` (stereo not drawn) yielded a melting point of 160 to 161 °C.

`CCOC(=O)COc1ccc([N+](=O)[O-])cc1C(F)(F)F` gave a melting point of 45 to 46 °C.

`CC(C)c1cc(C=CC(=O)Nc2ccc(C(=O)O)cc2)oc1C(C)C`: the melting point was in the range of 131 to 133 °C.

`NS(=O)(=O)c1ccc(NC(=O)CCl)cc1Cl` displayed a melting point of 214 to 216 °C.

In turn, `CSC1Oc2ccccc2C1=O` (stereo not drawn) gave a melting point of 81 to 82 °C.

Regarding `CC(=O)N[C@H](COC1CCCCO1)C(=O)NCCO[N+](=O)[O-]` (stereo partly drawn), the melting point fell in the range of 93 to 95 °C.

Take `CS(=O)(=O)c1ccc(-n2cnc(Cl)c2-c2ccc(Cl)c(Cl)c2)cc1`: the melting point was 156 to 157 °C.

On to `CC1=NNC(=O)N(N)C1`, for which the melting point fell in the range of 117 to 119 °C.

For the compound `COc1nc(-c2ccc3c(c2)OCO3)c2cc3c(cc2n1)OCO3`, the melting point fell in the range of 216 to 223 °C.

Take `O=C(CCl)N(CCc1[nH]c2ccccc2c1-c1ccccc1)CC1CC1`: the melting point lay within 104 to 106 °C.

The compound `CCCCN(CCCc1coc2c(OC)cccc12)C1COc2c(F)ccc(C(N)=O)c2C1` (stereo not drawn) yielded a melting point of 110 to 117 °C.

Turning to `N#Cc1ccc2[nH]cc([C@H]3CC[C@@H](N4CC(Oc5cccc(F)c5)C4)CC3)c2c1`, the melting point fell in the range of 187 to 190 °C.

In the case of `CN(C)CCNS(=O)(=O)c1ccc(O)cc1`, the melting point lay in the range of 165 to 168 °C.

Turning to `O=C(Oc1cc2ccccc2cc1OC(=O)c1cc(O)c(O)c(O)c1)c1cc(O)c(O)c(O)c1`, the melting point was in the range of 182 to 183 °C.

In the case of `CCC(CC)(c1ccc(F)cc1)c1c[nH]c2c(NS(C)(=O)=O)cccc12`, the melting point was 137 to 138 °C.

`N#Cc1c(N2CCN(C(=O)C3CCCS3)CC2)c2ccccc2n(Cc2ccc(F)cc2)c1=O` (stereo not drawn) returned a melting point of 133 to 140 °C.

For the compound `CCOC(=O)c1cc(=O)c2c(OCC(O)COc3ccc(C#N)cc3)cccc2o1` (stereo not drawn), the melting point is 137 to 139 °C.

Compound `CCCCc1ncc(/C=C(\Cc2cccs2)C(=O)O)n1Cc1ccc(C(=O)O)c(C(=O)O)c1` gave a melting point of 204 to 205 °C.

Compound `CC(C#N)c1ccc(Cc2ccccc2CC#N)cc1` (stereo not drawn) returned a melting point of 61 to 64 °C.

For `CC(C)c1ccc(OCCCN2CCN(c3ccc(Cl)nn3)CC2)cc1`, the melting point lay in the range of 125 to 127 °C.

With `C#Cc1cc(C)nc(C(=O)Nc2ccn(C)n2)c1`, the melting point amounted to 226 °C.

Compound `Nc1ccc(Sc2ccccc2)nc1N` had a melting point of 119 to 122 °C.

The compound `CCc1cc(CCNc2ncnc3c(F)ccc(F)c23)ccc1Oc1cc(C(F)(F)F)ccn1` yielded a melting point of 121 to 122 °C.

`COCCc1nc2c(N)nc3ccccc3c2n1CC(C)C` came in with a melting point of 168 to 170 °C.

`CCCn1nc2c(N)nc3ncccc3c2c1CC1CCOCC1` yielded a melting point of 252 to 255 °C.

`O=C(CN1c2nc(-c3ccncc3)cc(=O)n2CCC1c1ccccc1)c1ccc2ccccc2c1` (stereo not drawn): the melting point was in the range of 226 to 228 °C.

The compound `CCCC(=O)NCc1ccc(C(=O)O)cc1` gave a melting point of 186 to 188 °C.

`CC(C)(C)CC(C)(C)c1ccc(Oc2ccc(C(F)(F)F)cc2NC(=O)Nc2cc(C(F)(F)F)cc(C(F)(F)F)c2)c(C(=O)O)c1`: the melting point was 233 °C.

In the case of `Nc1cc(Oc2ccc(-c3ccc(Oc4cc(N)cc(C(F)(F)F)c4)cc3)cc2)cc(C(F)(F)F)c1`, the melting point lay within 130 to 133 °C.

In the case of `O=C(CC(Cc1ccccc1)C(=O)O)c1ccc(F)cc1` (single isomer, unassigned; (+)), the melting point came to 88 °C.

Turning to `O=C(CCCCCCN(Cc1ccccc1)C(=O)c1cn2c3c(cccc13)CCC2)NO`, the melting point was 71 to 73 °C.

In turn, `C=CCONC(=O)c1nc(-c2ccc(Cl)c(OC)c2F)nc(N)c1OC` came in with a melting point of 148 to 150 °C.

`O=C(C#Cc1ccc(-c2ccc(Cl)cc2)cn1)Nc1ccc(CN2CCC(O)CC2)cc1` came in with a melting point of 186 to 190 °C.

For `CN(C)c1nc2ccccc2n2cnnc12`, the melting point was 184 to 186 °C.

Compound `CN(C(=O)c1ccccc1)C(=N[N+](=O)[O-])NCc1cnc(Cl)s1` came in with a melting point of 170 to 172 °C.

Consider `Cc1coc(C)c1-c1nc2cc(Cl)cc(CCc3ccccn3)c2o1`, for which the melting point was 73 to 76 °C.

With `CCOC(=O)CNC(=O)CS(=O)(=O)Nc1ccc(F)c(C(F)(F)F)c1`, the melting point fell in the range of 145 to 147 °C.

`CC(=O)CC(=S)NCC(=O)N1CCC[C@H]1C(=O)O` yielded a melting point of more than 320 °C.

For the compound `CC(=O)Nc1nc(CCc2ccc(CCN3CCN(C(=O)OC(C)(C)C)CC3)cc2)cs1`, the melting point was in the range of 178 to 179 °C.

Compound `Cc1cccc(C)c1NC(C)C(=O)O` (stereo not drawn) showed a melting point of 178 to 180 °C.

Consider `COC(=O)c1ccc(S(C)(=O)=O)c(C)c1Cl`, for which the melting point was in the range of 107 to 108 °C.

As for `Cc1nc(-c2ccc(C=CC3(O)CN4CCC3CC4)cc2)no1` (stereo not drawn), the melting point lay within 188 to 189 °C.

In turn, `Brc1ccc2c(c1)CCOC2CCN1CCN(c2ccc(OCc3ccccc3)cc2)CC1` (stereo not drawn) displayed a melting point of 87 to 90 °C.

With `CCN(c1ccc(Cl)cc1C(N)=S)S(=O)(=O)c1ccc(C)cc1`, the melting point is 180 to 182 °C.

Compound `O=C(Cc1ccc(Cl)c(Cl)c1)N1CCCC2CCCC(N3CCCC3)C21` (stereo not drawn) showed a melting point of 82 to 84 °C.

`CCn1c(-c2ccc(F)cc2)c(OCCOc2ccc(C(C)=C3SC(=O)NC3=O)cc2)c(=O)c2ccccc21`: the melting point was in the range of 214 to 216 °C.

Turning to `CC(=O)NC(C(=O)c1ccccc1N)[N+](=O)[O-]` (stereo not drawn), the melting point was in the range of 178 to 179 °C.

Consider `CN(CCOC[C@@H]1CC(c2ccc(-c3ccc(N4C[C@H](Cn5ccnn5)OC4=O)cc3F)cn2)=NO1)CC(=O)O`, for which the melting point fell in the range of 135 to 140 °C.

For `COC(=O)C1CN(C)CCC1c1ccc(F)cc1` (stereo not drawn), the melting point lay within 88 to 89 °C.

Regarding `O=C(NCc1cocn1)c1cc(-n2cnn(Cc3ccc(F)cc3)c2=O)n[nH]1`, the melting point fell in the range of 267 to 268 °C.

Turning to `COc1ccc2oc3ccc(I)cc3c2c1C(=O)Nc1cccnc1`, the melting point was in the range of 286 to 287 °C.

With `CC(=O)c1cccc(-c2nc(Nc3ccc(OC(F)(F)F)cc3)cc(N3CCOCC3)n2)c1`, the melting point was 218 to 220 °C.

The compound `O=C(NCCN1CCCCC1)c1ccc(=O)n(Cc2ccc(-c3ccccc3)cc2)c1` yielded a melting point of 137 to 142 °C.

The compound `C[C@]1(COc2ccc(N3CCC(Cc4cccc(OC(F)(F)F)c4)CC3)cc2)Cn2cc([N+](=O)[O-])nc2O1` returned a melting point of 187 to 190 °C.

Compound `CCn1cc(C(=O)O)c(=O)c2cc(F)c(N3Cc4ccc(C(=O)OC)cc4C3)cc21` had a melting point of more than 300 °C.

In turn, `N#CC=Cc1ccc(Cl)s1` returned a melting point of 41 to 43 °C.

Take `CC(=O)C1COc2ccccc2C1=O` (stereo not drawn): the melting point was 81 to 83 °C.
